Assay results published in paper PMC4411097, “Pachymic Acid Inhibits Growth and Induces Apoptosis of Pancreatic Cancer In Vitro and In Vivo by Targeting ER Stress” (PLoS ONE, 2015).

What was measured:
[1] = tested on: advanced pancreatic cancer; conditions: cited from earlier work
[2] = tested on: PARP cleavage (c-PARP) in PANC-1 cells; experiment: Western blot for PARP cleavage (c-PARP); format: cell-based, human; conditions: PANC-1, TUDCA 200 μM with PA 30 μM, 24 h
Description: (§1) Apoptosis induction in PA-treated cells was assessed by quantitation of cytoplasmic histone-associated DNA fragments and western blotting for PARP cleavage (c-PARP). The Cell Death Detection ELISA^PLUS Kit (Roche, Indianapolis, IN) was used to detect the amount of cytoplasmic histone-associated DNA fragments according to the manufacturer’s instructions and expressed relative to vehicle-treated cells (set equal to 1).
(§2) PANC-1, MIA PaCa-2 cells were treated with PA (0–30 μM) for 10 min, 30 min or 24 h, respectively. Whole protein extracts isolated from cells and tumor tissues were prepared and western blot analysis with anti-cleaved PARP, anti-XBP-1s, anti-ATF6, anti-ATF4, anti-Hsp70, anti-CHOP, anti-phospho-eIF2α or anti-eIF2α antibodies were performed as previously described. Western blots were quantified with HP-Scanjet 550c and analyzed by UN-SCAN-IT software (Silk Scientific, Orem, UT). Three independent experiments were done for all the immunoblot studies and quantitative data composed of all the experiments with statistical analysis were added below the representative blot image.

[3] = tested on: PARP cleavage (c-PARP) in MIA PaCa-2 cells; experiment: Western blot for PARP cleavage (c-PARP); format: cell-based, human; conditions: MIA PaCa-2, TUDCA 200 μM with PA 30 μM, 24 h
Description: as §1, §2

[4] = tested on: ER stress response proteins in PANC-1 cells; experiment: Western blot of ER stress response proteins; format: cell-based, human; conditions: PANC-1, TUDCA 200 μM with PA 30 μM, 24 h
Description: as §2

[5] = tested on: ER stress response proteins in MIA PaCa-2 cells; experiment: Western blot of ER stress response proteins; format: cell-based, human; conditions: MIA PaCa-2, TUDCA 200 μM with PA 30 μM, 24 h
Description: as §2

PANC-1 cells = experiment: Apoptosis, Cell Death Detection ELISA (cytoplasmic histone-associated DNA fragments); format: cell-based, human; conditions: PANC-1, TUDCA 200 μM with PA 30 μM, 24 h
Description: as §1

MIA PaCa-2 cells = experiment: as above; format: cell-based, human; conditions: MIA PaCa-2, TUDCA 200 μM with PA 30 μM, 24 h
Description: as §1

| SMILES | Response rate ([1]; advanced pancreatic cancer) | Median survival time ([1]; pancreatic cancer) | Tumor response rate ([1]; pancreatic cancer) | Effect of TUDCA on PA-associated c-PARP expression [2] | Effect of TUDCA on PA-associated c-PARP expression [3] | Effect of TUDCA on PA-induced ATF4 and CHOP [4] | Effect of TUDCA on PA-induced ATF4 and CHOP [5] | Effect of TUDCA on PA-associated nuclear DNA fragmentation (PANC-1 cells) | Effect of TUDCA on PA-associated nuclear DNA fragmentation (MIA PaCa-2 cells) |
| --- | --- | --- | --- | --- | --- | --- | --- | --- | --- |
| Nc1ccn([C@@H]2O[C@H](CO)[C@@H](O)C2(F)F)c(=O)n1 [Gemcitabine] | less than 20% | 5 months | 12% |  |  |  |  |  |  |
| C[C@H](CCC(=O)NCCS(=O)(=O)O)[C@H]1CC[C@H]2[C@@H]3[C@@H](O)C[C@@H]4C[C@H](O)CC[C@]4(C)[C@H]3CC[C@]12C [TUDCA, tauroursodeoxycholic acid, reference compound] |  |  |  | blocked the enormous increase in the expression of c-PARP | blocked the enormous increase in the expression of c-PARP | blocked the induction of ATF4 and CHOP | blocked the induction of ATF4 and CHOP | rescued | rescued |
